Where two headings read alike, the source gives them in different places.
Key:
[1] = system: Vero E6-eGFP cells; details: read-out: VeroE6 + CP (CC50), absence of virus, numeric values
[2] = system: HeLa cells; test: Cytotoxicity in HeLa cells without OC43 virus (cell-titer-glo); details: HeLa cells without OC43 virus
[3] = target: T1, human cathepsin L (Homo sapiens, UniProt P07711); test: Cathepsin L assay (Z-FR-AMC fluorescence); format: biochemical; details: 10 pM human cathepsin L, 30 mins preincubation, Z-FR-AMC 2 μM
T1 construct: purchased R&D Systems
Summary of the method: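 IC50 values were taken from four-parameter fits of fluorescence read at 355/460 nm every 2 minutes for 30 minutes. The reaction started when 2 μM Z-FR-AMC was added. Before that, 10 pM human cathepsin L had been preincubated with inhibitor for 30 minutes.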

[4] = system: SARS-CoV-2-GHB-03021/2020; format: cell-based; details: read-out: VeroE6 + CP (EC50)
[5] = system: A549-dual_ACE2_TMPRSS2 cells; details: read-out: A549-dual_ACE2_TMPRSS2 (CC50); assay medium without virus, MTS, numeric values
[6] = target: T2, SARS-Cov-2 3CLpro (Severe acute respiratory syndrome coronavirus 2, UniProt P0DTD1); test: biochemical; details: read-out: SARS-Cov-2 IC50 (class)
T2 construct: 3CLpro and HRV3C was added using a Multidrop Combi

[7] = system: B.1.1.7 lineage SARS-CoV-2; test: microbe, parasite or virus in culture; format: cell-based; details: read-out: A549-dual_ACE2_TMPRSS2 (EC50)
[8] = system: human beta-coronavirus OC43; test: OC43 coronavirus antiviral assay in HeLa cells (cytopathic effect, cell-titer-glo); format: cell-based; details: 6 days at 33° C., read-out: EC50 (class)
[9] = target: T3, HRV3C (Human rhinovirus 14, UniProt P03303); test: biochemical; parameters: species or system HRV; details: HRV3C, 30 mins preincubation, SAMDI-MS
T3 construct: 3CLpro and HRV3C was added using a Multidrop Combi

[10] = 3CLpro, 30 mins preincubation, SAMDI-MS

T3 sequence (P03303 1538-1719): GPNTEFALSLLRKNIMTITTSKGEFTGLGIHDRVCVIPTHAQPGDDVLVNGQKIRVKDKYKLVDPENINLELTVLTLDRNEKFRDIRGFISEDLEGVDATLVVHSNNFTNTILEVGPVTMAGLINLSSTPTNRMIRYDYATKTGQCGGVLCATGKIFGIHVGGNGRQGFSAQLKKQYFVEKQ
T1 sequence (P07711 114-333): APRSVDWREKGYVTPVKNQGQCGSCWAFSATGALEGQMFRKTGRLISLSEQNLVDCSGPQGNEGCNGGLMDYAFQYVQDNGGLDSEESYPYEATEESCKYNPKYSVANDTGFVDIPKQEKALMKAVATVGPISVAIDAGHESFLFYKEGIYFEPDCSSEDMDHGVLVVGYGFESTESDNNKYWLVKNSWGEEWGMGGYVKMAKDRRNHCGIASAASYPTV

Compound: CC(C)(C)[C@H](NC(=O)C(F)(Cl)Cl)C(=O)N1C[C@H]2[C@@H]([C@H]1C(=O)N[C@H](C#N)C[C@@H]1CCNC1=O)[C@H]1C=C[C@@H]2C1 [Compound 48, (1R,2S,3S,6R,7S)—N-[(1S)-1-cyano-2-[(3S)-2-oxopyrrolidin-3-yl]ethyl]-4-[(2S)-2-(2,2-dichloro-2-fluoroacetamido)-3,3-dimethylbutanoyl]-4-azatricyclo[5.2.1.0^{2,6}]dec-8-ene-3-carboxamide]
- CC50 [1]: > 50 µM
- CC50 [2]: > 100 µM
- IC50 [3]: ≥ 10 µM
- EC50 [4]: < 0.1 µM
- CC50 [5]: > 10 µM
- IC50 [6]: < 0.02 µM
- EC50 [7]: < 0.1 µM
- EC50 [8]: < 0.1 µM
- IC50 ([9]; read-out: HRV IC50 (bound)): > 10 µM

Compound: CC(C)(C)[C@H](NC(=O)C(F)(F)F)C(=O)N1C[C@H]2[C@@H]([C@H]1C(=O)N[C@H](C#N)CC1Cn3ncnc3NC1=O)[C@H]1C=C[C@@H]2C1 (stereo partly drawn) [Compound 51, (1R,2S,3S,6R,7S)—N-[(1S)-1-cyano-2-{5-oxo-4H,6H,7H-[1,2,4]triazolo[1,5-α]pyrimidin-6-yl}ethyl]-4-[(2S)-3,3-dimethyl-2-(2,2,2-trifluoroacetamido)butanoyl]-4-azatricyclo[5.2.1.0^{2,6}]dec-8-ene-3-carboxamide]
- CC50 [1]: > 50 µM
- CC50 [2]: > 100 µM
- IC50 [3]: ≥ 10 µM
- CC50 [5]: > 10 µM
- IC50 [6]: < 0.02 µM
- EC50 [7]: 1 to 10 µM
- EC50 [8]: 0.1 to 1 µM
- IC50 ([9]; read-out: HRV IC50 (bound)): > 10 µM

Compound: CC(C)(C)[C@H](NC(=O)C(F)(F)F)C(=O)N1C[C@H]2[C@@H]([C@H]1C(=O)N[C@H](C#N)C[C@@H]1CCNC1=O)[C@H]1C=C[C@@H]2CC1 [Compound 59b]
- CC50 [2]: > 100 µM
- IC50 [3]: ≥ 10 µM
- CC50 [5]: > 10 µM
- IC50 [6, 10]: < 0.02 µM
- EC50 [8]: < 0.1 µM
- IC50 ([9]; read-out: HRV IC50 (bound)): > 10 µM

Compound: CC(C)(C)[C@H](NC(=O)C(F)(F)F)C(=O)N1C[C@@H]2[C@H]3C[C@@H]([C@@H]2[C@H]1C(=O)N[C@H](C#N)C[C@@H]1CCNC1=O)C1(CC1)C3 [Compound 60, (1′S,2′R,5′S,6′S,7′S)—N-[(1S)-1-cyano-2-[(3S)-2-oxopyrrolidin-3-yl]ethyl]-4′-[(2S)-3,3-dimethyl-2-(2,2,2-trifluoroacetamido)butanoyl]-4′-azaspiro[cyclopropane-1,8′-tricyclo[5.2.1.0^{2,6}]decane]-5′-carboxamide]
- CC50 [2]: > 100 µM
- IC50 [3]: ≥ 10 µM
- CC50 [5]: > 10 µM
- IC50 [6]: 0.02 to 0.2 µM
- EC50 [7]: 0.1 to 1 µM
- EC50 [8]: 1 to 10 µM
- IC50 ([9]; read-out: HRV IC50 (bound)): > 10 µM

Compound: CC(C)(C)[C@H](NC(=O)C(F)(F)F)C(=O)N1C[C@@H]2[C@H]3C[C@@H]([C@@H]2[C@H]1C(=O)N[C@H](C#N)C[C@@H]1CCNC1=O)C(F)(F)C3 [Compound 61, (1S,2R,3S,6R,7S)—N-[(1S)-1-cyano-2-[(3S)-2-oxopyrrolidin-3-yl]ethyl]-4-[(2S)-3,3-dimethyl-2-(2,2,2-trifluoroacetamido)butanoyl]-9,9-difluoro-4-azatricyclo[5.2.1.0^{2,6}]decane-3-carboxamide]
- CC50 [2]: > 100 µM
- IC50 [3]: ≥ 10 µM
- CC50 [5]: > 10 µM
- IC50 [6]: < 0.02 µM
- EC50 [8]: 0.1 to 1 µM
- IC50 ([9]; read-out: HRV IC50 (bound)): > 10 µM

Compound: C=C1C[C@@H]2C[C@H]1[C@H]1[C@@H]2CN(C(=O)[C@@H](NC(=O)C(F)(F)F)C(C)(C)C)[C@@H]1C(=O)N[C@H](C#N)C[C@@H]1CCNC1=O [Compound 62, (1S,2S,3S,6R,7S)—N-[(1S)-1-cyano-2-[(3S)-2-oxopyrrolidin-3-yl]ethyl]-4-[(2S)-3,3-dimethyl-2-(2,2,2-trifluoroacetamido)butanoyl]-9-methylidene-4-azatricyclo[5.2.1.0^{2,6}]decane-3-carboxamide]
- CC50 [2]: > 100 µM
- IC50 [3]: ≥ 10 µM
- CC50 [5]: > 10 µM
- IC50 [6]: < 0.02 µM
- EC50 [7]: < 0.1 µM
- EC50 [8]: < 0.1 µM
- IC50 ([9]; read-out: HRV IC50 (bound)): > 10 µM

Compound: CC(C)(C1CC1)[C@H](NC(=O)C(F)(F)F)C(=O)N1C[C@H]2[C@@H]([C@H]1C(=O)N[C@H](C#N)C[C@@H]1CCNC1=O)[C@H]1C=C[C@@H]2C1 [Compound 69, (1R,2S,3S,6R,7S)—N-[(1S)-1-cyano-2-[(3S)-2-oxopyrrolidin-3-yl]ethyl]-4-[(2S)-3-cyclopropyl-3-methyl-2-(2,2,2-trifluoroacetamido)butanoyl]-4-azatricyclo[5.2.1.0^{2,6}]dec-8-ene-3-carboxamide]
- CC50 [2]: > 100 µM
- IC50 [3]: ≥ 10 µM
- CC50 [5]: > 10 µM
- IC50 [6]: < 0.02 µM
- EC50 [7]: < 0.1 µM
- EC50 [8]: < 0.1 µM
- IC50 ([9]; read-out: HRV IC50 (bound)): > 10 µM

Compound: CC(C)(C)[C@H](NC(=O)C(F)(F)F)C(=O)N1C[C@@H]2[C@H]3CC[C@H](CC3)[C@@H]2[C@H]1C(=O)N[C@H](C#N)C[C@@H]1CCNC1=O [Compound 71b]
- CC50 [2]: > 100 µM
- CC50 [5]: > 10 µM
- IC50 [6, 10]: < 0.02 µM
- EC50 [7]: < 0.1 µM
- EC50 [8]: < 0.1 µM
- IC50 ([9]; read-out: HRV IC50 (bound)): > 10 µM

Compound: CC(C)(C)[C@H](NC(=O)C(F)(F)F)C(=O)N1C[C@H]2[C@@H]([C@H]1C(=O)N[C@H](C#N)CC1CC3(COC3)NC1=O)[C@H]1C=C[C@@H]2C1 (stereo partly drawn) [Compound 106, (1R,2S,3S,6R,7S)—N-[(1S)-1-cyano-2-{6-oxo-2-oxa-5-azaspiro[3.4]octan-7-yl}ethyl]-4-[(2S)-3,3-dimethyl-2-(2,2,2-trifluoroacetamido)butanoyl]-4-azatricyclo[5.2.1.0^{2,6}]dec-8-ene-3-carboxamide]
- CC50 [2]: > 100 µM
- CC50 [5]: > 10 µM
- IC50 [6]: < 0.02 µM
- EC50 [7]: < 0.1 µM
- EC50 [8]: < 0.1 µM
- IC50 ([9]; read-out: HRV IC50 (bound)): > 0.5 µM

Compound: CC(C)(C)[C@H](NC(=O)C(F)(F)F)C(=O)N1C[C@H]2[C@@H]([C@H]1C(=O)NC(C[C@@H]1CCNC1=O)C(=O)C(=O)NC1CC1)[C@H]1C=C[C@@H]2C1 (stereo partly drawn) [Example 10, N-cyclopropyl-3-{[(1R,2S,3S,6R,7S)-4-[(2S)-3,3-dimethyl-2-(2,2,2-trifluoroacetamido)butanoyl]-4-azatricyclo[5.2.1.0^{2,6}]dec-8-en-3-yl]formamido}-2-oxo-4-[(3S)-2-oxopyrrolidin-3-yl]butanamide]
- CC50 [1]: > 50 µM
- CC50 ([2]; read-out: CC50 (class)): > 10 µM
- IC50 [3]: ≥ 10 µM
- CC50 [5]: > 10 µM
- IC50 [6]: < 0.02 µM
- EC50 [8]: 0.1 to 1 µM
- IC50 ([9]; read-out: HRV IC50 (class)): 0.02 to 0.2 µM

Compound: CC(C)(C)[C@H](NC(=O)C(F)(F)F)C(=O)N1C[C@@H]2[C@H]3C[C@@H]([C@@H]2[C@H]1C(=O)N[C@H](C#N)C[C@@H]1CCNC1=O)[C@H](F)C3 [Example 86, (1S,2R,3S,6R,7S,9R)—N-[(1S)-1-cyano-2-[(3S)-2-oxopyrrolidin-3-yl]ethyl]-4-[(2S)-3,3-dimethyl-2-(2,2,2-trifluoroacetamido)butanoyl]-9-fluoro-4-azatricyclo[5.2.1.0^{2,6}]decane-3-carboxamide]
- CC50 [2]: > 100 µM
- IC50 [3]: ≥ 10 µM
- CC50 [5]: > 10 µM
- IC50 [6]: < 0.02 µM
- EC50 [7]: < 0.1 µM
- EC50 [8]: < 0.1 µM
- IC50 ([9]; read-out: HRV IC50 (bound)): > 0.5 µM

Compound: CC(C)(C)[C@H](NC(=O)C(F)(F)F)C(=O)N1C[C@@]2(F)[C@@H]([C@H]1C(=O)N[C@H](C#N)C[C@@H]1CCNC1=O)[C@H]1C=C[C@@H]2C1 [Example 94, (1R,2R,3S,6S,7S)—N-[(1S)-1-cyano-2-[(3S)-2-oxopyrrolidin-3-yl]ethyl]-4-[(2S)-3,3-dimethyl-2-(2,2,2-trifluoroacetamido)butanoyl]-6-fluoro-4-azatricyclo[5.2.1.0^{2,6}]dec-8-ene-3-carboxamide]
- CC50 [2]: > 100 µM
- CC50 [5]: > 1 µM
- IC50 [6]: < 0.02 µM
- EC50 [7]: < 0.1 µM
- EC50 [8]: < 0.1 µM
- IC50 ([9]; read-out: HRV IC50 (bound)): > 0.5 µM
